Test results published in ChEMBL document CHEMBL1134193, “Initial structure-activity relationship of a novel class of nonpeptidyl GnRH receptor antagonists: 2-arylindoles” (Bioorg Med Chem Lett, 2001).

Target: T1, Gonadotropin-releasing hormone receptor (Rattus norvegicus) (UniProt P30969)
T1 sequence (whole entry): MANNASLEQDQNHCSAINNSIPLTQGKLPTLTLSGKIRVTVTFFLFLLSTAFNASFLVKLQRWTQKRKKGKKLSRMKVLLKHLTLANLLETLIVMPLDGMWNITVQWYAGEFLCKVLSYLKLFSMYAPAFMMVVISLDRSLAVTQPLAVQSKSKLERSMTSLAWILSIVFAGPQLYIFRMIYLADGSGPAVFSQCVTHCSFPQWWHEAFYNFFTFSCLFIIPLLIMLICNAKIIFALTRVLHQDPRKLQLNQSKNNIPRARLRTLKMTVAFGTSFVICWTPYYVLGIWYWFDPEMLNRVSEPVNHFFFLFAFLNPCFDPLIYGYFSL
Experiment: Percent inhibition of displacement of [125I]- - radio-labeled buserelin from rat Gonadotropin-releasing hormone receptor
Conditions: concentration not given here

inhibition [%]	SMILES
0	COc1ccc(-c2[nH]c3ccccc3c2CCNC(=O)CCCc2ccc(OCc3ccccc3)cc2)cc1OC

Target: T2, Gonadotropin-releasing hormone receptor (Rattus norvegicus, UniProt P30969)
T2 sequence (P30969 whole entry): T1 sequence (whole entry)
Experiment: Ability to displace [125I]- - radio-labeled buserelin from rat Gonadotropin-releasing hormone receptor
Conditions: not given

SMILES	IC50 [nM]
COc1ccc(-c2[nH]c3ccccc3c2CCNCCCCc2ccc(OCc3ccccc3)cc2)cc1OC	30000
COc1ccc(-c2[nH]c3ccccc3c2CCNCCCc2ccc(O)cc2)cc1OC	6000
Cn1ccc2cc(-c3[nH]c4ccccc4c3CCNCCCCc3ccc(O)cc3)ccc21	2800
COc1ccc(-c2[nH]c3ccccc3c2CCNCc2ccc(O)cc2)cc1OC	20000
COc1ccc(-c2[nH]c3ccccc3c2CCNCCCCc2ccc(O)cc2)cc1OC	2000
Oc1ccc(CCCCNCCc2c(-c3cccc4cnccc34)[nH]c3ccccc23)cc1	1900
Oc1ccc(CCCCNCCc2c(-c3ccc(F)cc3)[nH]c3ccccc23)cc1	11000
COc1ccc(-c2[nH]c3ccccc3c2CCNC[C@H](O)COc2ccc(O)cc2)cc1OC	3000
Oc1ccc(CCCCNCCc2c(-c3cc(C(F)(F)F)cc(C(F)(F)F)c3)[nH]c3ccccc23)cc1	1500
COc1ccc(-c2[nH]c3ccccc3c2CCNCCCCCc2ccc(O)cc2)cc1OC	2000
Cc1ccc(-c2[nH]c3ccccc3c2CCNCCCCc2ccc(O)cc2)cc1	9000
CCc1cccc(-c2[nH]c3ccccc3c2CCNCCCCc2ccc(O)cc2)c1	900
COc1ccc(-c2[nH]c3ccccc3c2CCNC(=O)CCCc2ccc([N+](=O)[O-])cc2)cc1OC	> 30000
Cc1cccc(C)c1-c1[nH]c2ccccc2c1CCNCCCCc1ccc(O)cc1	1700
COc1ccc(-c2[nH]c3ccccc3c2CCNCCCCCCc2ccc(O)cc2)cc1OC	10000
COc1ccc(-c2[nH]c3ccccc3c2CCNC(=O)CCCc2ccc(N)cc2)cc1OC	30000
Cc1cc(C)cc(-c2[nH]c3ccccc3c2CCNCc2ccc(O)cc2)c1	9000
Cc1cccc(-c2[nH]c3ccccc3c2CCNCCCCc2ccc(O)cc2)c1C	900
Oc1ccc(CCCCNCCc2c(-c3cc4ccccc4s3)[nH]c3ccccc23)cc1	2500
Oc1ccc(CCCCNCCc2c(-c3ccccc3)[nH]c3ccccc23)cc1	1300
COc1ccc(-c2[nH]c3ccccc3c2CCNC[C@@H](O)COc2ccc(O)cc2)cc1OC	3000
Oc1ccc(CCCCNCCc2c(-c3ccc4ccccc4c3)[nH]c3ccccc23)cc1	2500
COc1ccc(-c2[nH]c3ccccc3c2CCNCCCCc2ccc(N)cc2)cc1OC	10000
COc1ccc(-c2[nH]c3ccccc3c2CCNCCCCc2ccc([N+](=O)[O-])cc2)cc1OC	5000
COc1ccc(-c2[nH]c3ccccc3c2CCNC[C@H](O)CCc2ccc(O)cc2)cc1OC	2000
COc1ccc(-c2[nH]c3ccccc3c2CCNCCc2ccc(O)cc2)cc1OC	4000
COc1ccc(-c2[nH]c3ccccc3c2CCNC(=O)CCCc2ccc(O)cc2)cc1OC	> 30000

Next, values leading:

IC50 [nM]	SMILES
500	Cc1ccccc1-c1[nH]c2ccccc2c1CCNCCCCc1ccc(O)cc1
700	COc1cc(OC)cc(-c2[nH]c3ccccc3c2CCNCCCCc2ccc(O)cc2)c1
600	Cc1cc(C)cc(-c2[nH]c3ccccc3c2CCNCCCCCCc2ccc(O)cc2)c1
600	COc1cccc(-c2[nH]c3ccccc3c2CCNCCCCc2ccc(O)cc2)c1
170	Oc1ccc(CCCCNCCc2c(-c3cc(Cl)cc(Cl)c3)[nH]c3ccccc23)cc1
200	Cc1cc(C)cc(-c2[nH]c3ccccc3c2CCNCCc2ccc(O)cc2)c1
250	Cc1cc(C)cc(-c2[nH]c3ccccc3c2CCNCCCc2ccc(O)cc2)c1
300	Oc1ccc(CCCCNCCc2c(-c3csc4ccccc34)[nH]c3ccccc23)cc1
130	Oc1ccc(CCCCNCCc2c(-c3cccc4ccccc34)[nH]c3ccccc23)cc1
50	Cc1cc(C)cc(-c2[nH]c3ccccc3c2CCNCCCCc2ccc(O)cc2)c1
400	Cc1ccc(C)c(-c2[nH]c3ccccc3c2CCNCCCCc2ccc(O)cc2)c1
200	Cc1cccc(-c2[nH]c3ccccc3c2CCNCCCCc2ccc(O)cc2)c1
200	Cc1cc(C)cc(-c2[nH]c3ccccc3c2CCNCCCCCc2ccc(O)cc2)c1
